The source of these data is patent US20160251403A1, “PEPTIDE COMBINATIONS AND USES THEREOF IN TREATING DUST MITE ALLERGY” (ALK-ABELLO A/S, priority 2013, published 2016).

One assay has as its target DQA10401-DQB10402. Description: Competitive MHC class II binding assay, DQA10401-DQB10402. As to conditions: for IC50: read-out: HLA-DQA10401-DQB10402, positive binding at cutoff 1000 nM.
The test system of assay [1] is allergen specific T cells. The experiment in a line: T cell proliferation assay (72 h) with allergen-specific T cell lines from house dust mite allergic donors; % responders. The assay is classed as cell-based, human. As to conditions: FIGS. 9b, 9c; subset of 22 donors having about 88% worldwide HLA Class II coverage. On the procedure:
This example includes a description of how peptides (singly or in combination) were screened for T cell reactivity in the donor population.
The T cell reactivity to peptides disclosed herein was determined either by measuring T cell proliferation of T cell lines specific to the allergens investigated or by measuring the cytokine production of allergen-specific T cells obtained from cultured PBMCs.
TCL specific to the six allergens rproDer p 1, rproDer f 1, rDer p 2, rDer f 2, Der p 4 and Der p 7, respectively or specific to the combination of all six allergens were established from peripheral blood mononuclear cells (PBMCs) of each donor.
PBMCs were isolated from freshly drawn heparinized blood by gradient centrifugation on lymphoprep (Nycomed, Norway), washed twice and re-suspended in RPMI 1640 medium with HEPES and ultraglutamine (Cambrex, Belgium) supplemented with 5% v/v AB-serum (Cambrex, Belgium), 100 units/ml penicillin, and 0.1 mg/ml streptomycin (Sigma, St Louis, USA) (referred to as AB-medium). Isolated PBMCs were CD8 depleted by Macs magnetic depletion according to the manufacturer's instructions (Miltenyi Biotec, Bergisch Gladbach, Germany). […]
The capacity of the different peptides to stimulate allergen specific T cells is analyzed in a standard 72 h T cell proliferation assay, as described in Henmar H et al., Clin Exp Immunol 2008; […]):316-23. […]

Another assay addresses T1, DPA10202-DPB10501 (Homo sapiens, UniProt P04440+P20036, A42M/A65V/A84E/F191V/F64L/G113D/G114E/K142R/L158P/M116V/M62Q/P115A/Q81R/R125K/T114A/T199I/T259P/V234M).
T1 sequence (P04440 30-258 A65V/A84E/F64L/G113D/G114E/M116V/P115A/R125K/T199I/V234M): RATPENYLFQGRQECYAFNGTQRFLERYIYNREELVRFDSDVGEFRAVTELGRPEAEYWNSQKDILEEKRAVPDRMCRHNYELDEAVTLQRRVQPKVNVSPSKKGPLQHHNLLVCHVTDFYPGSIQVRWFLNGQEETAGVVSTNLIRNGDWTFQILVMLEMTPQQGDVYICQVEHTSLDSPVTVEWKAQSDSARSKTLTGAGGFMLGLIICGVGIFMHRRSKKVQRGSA
T1 sequence (P20036 29-260 A42M/F191V/K142R/L158P/M62Q/Q81R/T114A/T259P): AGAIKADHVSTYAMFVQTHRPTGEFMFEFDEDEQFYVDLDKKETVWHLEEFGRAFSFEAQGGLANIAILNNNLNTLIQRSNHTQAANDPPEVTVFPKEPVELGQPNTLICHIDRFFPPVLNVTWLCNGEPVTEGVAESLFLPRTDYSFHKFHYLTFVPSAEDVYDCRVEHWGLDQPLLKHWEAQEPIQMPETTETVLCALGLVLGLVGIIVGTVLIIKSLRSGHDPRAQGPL
The experiment in a line: Competitive MHC class II binding assay, DPA10202-DPB10501. As to conditions: positive binding at cutoff 1000 nM; read-out: HLA-DPA10202-DPB10501.

A further assay deals with DPA10201-DPB11401. Description: Competitive MHC class II binding assay, DPA10201-DPB11401. As to conditions: read-out: HLA-DPA10201-DPB11401; positive binding at cutoff 1000 nM.
The target of another assay is DRB1_1201 (Homo sapiens, UniProt P01903+P01911, A100R/A169T/D57E/D86V/F55L/H45Y/K41T/L162R/M171V/P40S/Q125H/Q178H/Q39Y/Q99D/R42G/S66L/T262R/V114A/V67L/W38E/Y59H/Y61H/Y89S). The experiment in a line: Competitive MHC class II binding assay, DRB1_1201.

No end group written: not given here.

Procedure for DPA10201-DPB11401: (§1) The assay employed is a competitive MHC class II binding assay, wherein each peptide is analyzed for its ability to displace a known control binder from each of the human MHC class II allotypes shown in Table 8. Due to the nature of the competitive assay, the data for each peptide is determined as a ratio of its own IC50 to that of the control peptide.
Assays to quantitatively measure peptide binding to purified class II MHC molecules are based on the inhibition of binding of a high affinity radiolabeled peptide to purified MHC molecules, and were performed essentially as detailed elsewhere (Sidney et al. 2008; Sidney et al. 2010b, a; Greenbaum et al. 2011; Sidney et al. 2001, Sidney et al 2013, McKinney et al 2013). Briefly, 0.1-1 nM of radiolabeled peptide was co-incubated at room temperature or 37° C. with purified MHC in the presence of a cocktail of protease inhibitors. Following a two- to four-day incubation, MHC bound radioactivity was determined by capturing MHC/peptide complexes on monoclonal Ab coated Lumitrac 600 plates (Greiner Bio-one, Frickenhausen, Germany), and measuring bound cpm using the TopCount (Packard Instrument Co., Meriden, Conn.) microscintillation counter. […] Under the conditions utilized, where [label]<[MHC] and IC50≧[MHC], the measured IC50 values are reasonable approximations of the true Kd values (Cheng and Prusoff 1973; Gulukota et al. 1997). […]
Procedure for DPA10202-DPB10501: as §1
(§2) Briefly, 0.1-1 nM of radiolabeled peptide was co-incubated at room temperature or 37° C. with purified MHC in the presence of a cocktail of protease inhibitors. Following a two- to four-day incubation, MHC bound radioactivity was determined by capturing MHC/peptide complexes on monoclonal Ab coated Lumitrac 600 plates (Greiner Bio-one, Frickenhausen, Germany), and measuring bound cpm using the TopCount (Packard Instrument Co., Meriden, Conn.) microscintillation counter. In the case of competitive assays, the concentration of peptide yielding 50% inhibition of the binding of the radiolabeled peptide was calculated. Under the conditions utilized, where [label]<[MHC] and IC50≧[MHC], the measured IC50 values are reasonable approximations of the true Kd values (Cheng and Prusoff 1973; Gulukota et al. 1997). Each peptide was tested at six different concentrations covering a 100,000-fold dose range in three or more independent experiments. […]
Procedure for DQA10401-DQB10402: as §1
Briefly, 0.1-1 nM of radiolabeled peptide was co-incubated at room temperature or 37° C. with purified MHC in the presence of a cocktail of protease inhibitors. Following a two- to four-day incubation, MHC bound radioactivity was determined by capturing MHC/peptide complexes on monoclonal Ab coated Lumitrac 600 plates (Greiner Bio-one, Frickenhausen, Germany), and measuring bound cpm using the TopCount (Packard Instrument Co., Meriden, Conn.) microscintillation counter. In the case of competitive assays, the concentration of peptide yielding 50% inhibition of the binding of the radiolabeled peptide was calculated. Under the conditions utilized, where [label]<[MHC] and IC50≧[MHC], the measured IC50 values are reasonable approximations of the true Kd values (Cheng and Prusoff 1973; Gulukota et al. 1997). Each peptide was tested at six different concentrations covering a 100,000-fold dose range in three or more independent experiments. As a positive control, the unlabeled version of the radiolabeled probe was also tested in each experiment.
Procedure for DRB1_1201: as §1, §2

On to GSGSSWAFSGVAATESAYLA [pep-044], for which the IC50 at DQA10401-DQB10402 is below 1000 nM.

As for LVGDNGVLASAIATHAKIRD [pep-110], the “fraction of donors with T cell response (% donor response)” value in assay [1] is recorded as “higher percentage donor response than the other peptides”. The IC50 on DPA10202-DPB10501 and on DPA10201-DPB11401 was below 1000 nM in each case. As to `CC[C@H](C)[C@H](NC(=O)CNC(=O)[C@@H](NC(=O)[C@@H](NC(=O)[C@@H](NC(=O)[C@H](C)NC(=O)[C@@H](NC(=O)[C@H](C)NC(=O)[C@H](CO)NC(=O)[C@H](Cc1c[nH]cn1)NC(=O)[C@@H](NC(=O)[C@H](CCC(N)=O)NC(=O)[C@H](C)NC(=O)[C@H](CC(C)C)NC(=O)[C@H](C)NC(=O)[C@H](CCC(=O)O)NC(=O)[C@@H](N)CCCNC(=N)N)[C@@H](C)O)[C@@H](C)CC)C(C)C)[C@@H](C)CC)[C@@H](C)CC)C(=O)N[C@@H](CCCCN)C(=O)N[C@@H](CC(=O)O)C(=O)N[C@@H](CC(C)C)C(=O)N[C@@H](CC(=O)O)C(=O)N[C@@H](C)C(=O)O` [pep-130], the IC50 at DRB1_1201 is below 1000 nM. In the case of LVKGQQYDIKYTWNVPKIAPK [pep-131], the “fraction of donors with T cell response (% donor response)” value in assay [1] is “higher percentage donor response than the other peptides”.

Consider DNGYGYFAANIDLMMIEE [pep-010], for which, in the assay with DQA10401-DQB10402 (as shown in Table 16a), the “binding to HLA Class II allele DQA10401-DQB10402” value was “binds to at least the same alleles as peptide 041”. Moreover, the IC50 at DQA10401-DQB10402 was below 1000 nM.
